Literature values in patent publication US11452751B2, “Medication dispensing system” (priority 2015, dated 2022).

Key:
[1] = tested on: estrogen receptor-positive and estrogen receptor-negative breast cancer cell lines; details: inducing apoptosis in a concentration-dependent manner
[2] = tested on: nontumorigenic mammary cells
prostate cell line, PC-3 = details: Ruiz et al. 1999
[3] = target: T1, androgen receptor in the prostate gland (Homo sapiens, UniProt P10275)
T1 construct: host or cells: prostate gland
T1 sequence (P10275 1-920): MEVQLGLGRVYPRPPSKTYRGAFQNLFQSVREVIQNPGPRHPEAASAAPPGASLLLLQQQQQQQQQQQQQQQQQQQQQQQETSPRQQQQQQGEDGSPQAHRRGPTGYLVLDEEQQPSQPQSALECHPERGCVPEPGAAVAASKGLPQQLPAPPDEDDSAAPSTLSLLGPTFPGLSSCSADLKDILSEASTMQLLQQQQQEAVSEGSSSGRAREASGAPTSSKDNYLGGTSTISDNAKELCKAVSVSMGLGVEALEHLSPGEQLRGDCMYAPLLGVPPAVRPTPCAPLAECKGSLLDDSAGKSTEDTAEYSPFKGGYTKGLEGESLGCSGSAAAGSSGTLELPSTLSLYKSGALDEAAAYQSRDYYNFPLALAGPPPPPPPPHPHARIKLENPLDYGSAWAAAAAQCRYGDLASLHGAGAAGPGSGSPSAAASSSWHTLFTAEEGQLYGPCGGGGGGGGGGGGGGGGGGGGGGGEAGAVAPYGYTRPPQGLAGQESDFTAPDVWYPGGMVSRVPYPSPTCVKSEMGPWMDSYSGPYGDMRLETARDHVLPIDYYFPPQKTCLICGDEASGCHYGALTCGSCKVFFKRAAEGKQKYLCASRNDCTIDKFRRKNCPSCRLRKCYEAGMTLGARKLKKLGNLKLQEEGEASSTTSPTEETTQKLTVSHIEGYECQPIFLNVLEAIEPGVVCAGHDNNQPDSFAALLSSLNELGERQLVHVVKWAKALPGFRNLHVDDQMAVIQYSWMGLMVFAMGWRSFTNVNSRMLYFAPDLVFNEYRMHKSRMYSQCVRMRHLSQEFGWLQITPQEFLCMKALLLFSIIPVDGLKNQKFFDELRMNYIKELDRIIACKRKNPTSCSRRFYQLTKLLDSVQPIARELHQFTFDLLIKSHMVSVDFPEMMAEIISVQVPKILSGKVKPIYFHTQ

[4] = not given; remark: listed apart in the source
CB1 receptor = CB1 receptor (Homo sapiens, UniProt P21554)
Chain of CB1 receptor (P21554 whole entry): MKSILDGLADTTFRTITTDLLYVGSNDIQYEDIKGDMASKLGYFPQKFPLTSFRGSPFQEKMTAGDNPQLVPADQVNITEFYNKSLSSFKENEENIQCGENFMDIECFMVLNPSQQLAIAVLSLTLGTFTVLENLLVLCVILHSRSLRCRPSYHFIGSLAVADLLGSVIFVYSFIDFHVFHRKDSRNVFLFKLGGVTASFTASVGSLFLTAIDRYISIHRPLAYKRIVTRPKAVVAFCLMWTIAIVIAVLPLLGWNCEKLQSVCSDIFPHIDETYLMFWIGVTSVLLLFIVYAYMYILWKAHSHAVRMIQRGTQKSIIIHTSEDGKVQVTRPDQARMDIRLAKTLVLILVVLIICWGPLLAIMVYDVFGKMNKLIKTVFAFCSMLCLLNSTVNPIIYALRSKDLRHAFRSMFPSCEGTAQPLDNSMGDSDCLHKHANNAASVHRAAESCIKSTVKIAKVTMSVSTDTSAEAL

Molecule: C=C(C)[C@@H]1CCC(C)=C[C@H]1c1c(O)cc(CCCCC)cc1O [CBD, Cannabidiol]
- affinity to cannabinoid receptors (cannabinoid receptors): low affinity
- survival of breast cancer cell lines [1]: inhibited the survival
- effect on nontumorigenic mammary cells [2]: little effect

Molecule: CCCCCc1cc(O)c2c(c1)OC(C)(C)[C@@H]1CCC(C)=C[C@@H]21 [THC, Tetrahydrocannabinol]
- pain sensitivity (cold-pressor test after administration, dronabinol oral capsules 10 mg or 20 mg): decreased pain sensitivity
- duration of effects (compared with smoked marijuana): lasted longer than smoked marijuana
- time after administration at which pain reduction effects were felt (on the average, cold-pressor test): 180 min
- apoptosis (prostate cell line, PC-3): causes apoptosis
- specific binding of dihydroxytestosterone to the androgen receptor [3]: inhibits specific binding

Molecule: vitamin E
- reduction in breast cancer incidence ([4]; pre-menopausal women with a family history of breast cancer, highest quantity of vitamin E consumed): 43%
- risk reduction of breast cancer ([4]; women without a family history of breast cancer): 16%

Molecule: CCCc1cc(O)c2c(c1)OC(C)(C)[C@@H]1CCC(C)=C[C@@H]21 [THCV, Tetrahydrocannabivarin]
- mode of action at CB1 receptor (CB1 receptor): CB1 receptor antagonist
